In data set [1] the test system is reconstructed human skin (RS) tissues. The following applies: cited from earlier work; for detection of DNA damage, RS Comet assay versus RSMN assay: direct treatment with genotoxic metabolites of 2-AAF.
For data set [2], the system named is EpiDerm™ EPI-200-MNA skin tissues. To be noted: for maximum dose tested without exceeding the cytotoxicity thresholds: lack of excessive cytotoxicity.
For data set [3] the test system is unchanged.
For data set [4] the following is noted: cited from earlier work.
In a further data set the test system is multiple tissues. The following applies: mice, single i.p. injection; cited from earlier work.
The next data set concerns stomach, liver. The following applies: rats, daily treatment for 3 days, initial evaluation; cited from earlier work.
For data set [5], the system named is CHO, CHL, V79, HuLy cells. The following applies: cited from earlier work.
Data set [6] concerns V79, CHO, CHL, HuLy, TK6, HepG2, L5178Y cells. To be noted: cited from earlier work.
In a further data set the test system is mouse lymphoma cells. To be noted: cited from earlier work.
For a further data set, the system named is RS tissues. To be noted: cited from earlier work; for RSMN result with the 72-h protocol: contract research lab.
For data set [7] the following is noted: topically-applied; cited from earlier work.
Where [8] appears, read: three treatments, vs solvent control.
Setting [9] is: two treatments, vs solvent control.
[10] abbreviates: % VCC or % BN, lab(s) as stated in the text.
Where [11] appears, read: multiple treatments of RS tissues.

Where two headings read alike, the source gives them in different places. A value given as a limit tells only on which side of the number the result lay.

We go through 15 molecules from paper PMC8081377 (Mutagenesis, 2021).

For the molecule `CC(=O)N(O)c1ccc2c(c1)Cc1ccccc1-2` [N-hydroxy-2-acetylaminofluorene], the “detection of DNA damage, RS Comet assay versus RSMN assay” value in [1] was “more efficiently detected in the RS Comet assay than in the RSMN assay”.
As to `Cn1c(N)nc2c3cccnc3ccc21` [2-Amino-3-methylimidazo[4,5-f]quinolone], the “% BN (excessive cytotoxicity)” value in data set [2] (at ≥150 µg/cm^2, 48-h protocol, Lab A) was less than 20 % BN. Further, in data set [3] (setting [8]), the “% MN-BN response in individual experiment(s), Lab A, 72-h protocol” value (“% MN-BN response … Lab A, 72-h protocol” for short) is “Significant increases”. The “% MN-BN response in individual experiment(s), Lab A, 48-h protocol” value (from here on “% MN-BN response … Lab A, 48-h protocol”) in data set [3] (setting [9]) is “no increase”. Also, the “detection in the RS Comet assay” value in [1] (after multiple treatments) was “not detected”. Also, the IARC class in data set [4] (carcinogen classification) is on record as 2A.
With `ONc1ccc2c(c1)Cc1ccccc1-2` [N-hydroxy-2-aminofluorene], in [1], the “detection of DNA damage, RS Comet assay versus RSMN assay” value was “more efficiently detected in the RS Comet assay than in the RSMN assay”.
As to `[Cl][Cd][Cl]` [Cadmium chloride (CdCl2), Cadmium chloride], in [2] (setting [10]), the “top/maximum dose tested, limited by excessive or strong cytotoxicity” value (from here on “top/maximum dose tested, limited”) is reported as 160 µg/cm^2. Further, the “doses that caused 50% cytotoxicity” value in [2] (Lab A, 48-h protocol, Phase 2c) is on record as 100–160 µg/cm^2. In data set [3] (overall call), the “classification in the RSMN assay by Lab A” value (from here on “classification … by Lab A”) is on record as “positive”, the “classification in the RSMN assay by Lab B” value (“classification … by Lab B” below) was “negative” and the “classification in the RSMN assay by Lab C” value (“classification … by Lab C” for short) is reported as “positive”. For the same molecule, in [3] (setting [8]), the “% MN-BN response … Lab A, 72-h protocol” value is listed as “clear increase” and the “% MN-BN response in individual experiment(s), Lab B, 72-h protocol” value (“% MN-BN response … Lab B, 72-h protocol” for short) is “negative results”. In data set [3] (setting [9]), the “% MN-BN response … Lab A, 48-h protocol” value is “without any significant increase”; the “% MN-BN response in individual experiment(s), Lab B, 48-h protocol” value (from here on “% MN-BN response … Lab B, 48-h protocol”) is “No detectable increase”; the “% MN-BN response in individual experiment(s), Lab C, 48-h protocol” value (from here on “% MN-BN response … Lab C, 48-h protocol”) is given as “negative”. The “in vivo comet assay result, multiple tissues” value with multiple tissues is listed as “negative results”. For the same molecule, in the data set with stomach, liver, the “in vivo comet assay result, stomach” value is reported as “positive”.
Take `C=CCc1ccc(O)c(OC)c1` [Eugenol]: the “top/maximum dose tested, limited” value in data set [2] (setting [10]) is reported as 80–100 µg/cm^2. In data set [3] (overall call), the “classification … by Lab A” value is “positive”. In addition, the “% MN-BN response … Lab A, 72-h protocol” value in data set [3] (setting [8]) is “significant increase in the % MN-BN was seen at the two highest doses”. Besides, the “% MN-BN response … Lab A, 48-h protocol” value in data set [3] (setting [9]) is “significant increase in % MN-BN only at one mid-dose”. The “in vitro chromosome aberration tests” value in [5] (ref Supplementary Table S1) is on record as “positive findings”. Moreover, the “in vitro MN tests” value in [6] (ref Supplementary Table S1) is on record as “positive findings”. In addition, the carcinogenicity tests entry in data set [4] (ref Supplementary Table S1) is “negative”.
Turning to `C1=Cc2cc3cccc4ccc5ccc1c2c5c43` [Cyclopenta[c,d]pyrene (CPPE), Cyclopenta[c,d]pyrene], in the data set with mouse lymphoma cells, the “mouse lymphoma assay” value is “positive”. Besides, in data set [2] (48-h protocol), the “maximum dose tested without exceeding the cytotoxicity thresholds” value was 1600 µg/cm^2. Also, the “classification … by Lab B” value in data set [3] (overall call) is “positive”. Besides, the “% MN-BN response … Lab B, 72-h protocol” value in data set [3] (setting [8]) was “significant increase”. Further, in [3] (setting [9]), the “% MN-BN response … Lab C, 48-h protocol” value is reported as “negative results”. The skin tumours entry in data set [4] (mice, dermal application, ref Supplementary Table S1) is reported as “induce skin tumours”.
As for `O=P1(N(CCCl)CCCl)NCCCO1` (centres unmarked) [cyclophosphamide], the “RSMN result with the 72-h protocol” value with RS tissues was “positive results”.
Regarding `Cc1c2ccccc2c(C)c2c1ccc1ccccc12` [7,12-Dimethylbenz[a]thracene (DMBA), 7,12-Dimethylbenz[a]anthracene], in the data set on RS tissues (% VCC not used as cytotoxicity measure, higher doses tested), the “result in a previous RSMN study” value is recorded as “positive”. For the same molecule, the “top dose, limited by precipitation on the surface of the skin tissues” value in data set [2] (lab(s) as stated in the text) was found to be 240 µg/cm^2. Also, in data set [3], the “% MN-BN response … Lab A, 48-h protocol” value is given as “did not increase”; the “% MN-BN response … Lab A, 72-h protocol” value was “did not induce an increase”; the “classification … by Lab A” value is “negative”.
For `CCOS(C)(=O)=O` [Ethyl methanesulfonate (EMS), Ethyl methanesulfonate], the “top/maximum dose tested, limited” value in data set [2] (setting [10]) came to 360 µg/cm^2. In [3] (overall call), the “classification … by Lab A” value is reported as “positive” and the “classification … by Lab C” value is listed as “positive”. Further, in data set [3] (setting [8]), the “% MN-BN response … Lab A, 72-h protocol” value is given as “significant increase in the % MN-BN at multiple doses”. Further, in data set [3] (setting [9]), the “% MN-BN response … Lab C, 48-h protocol” value was “clear and dose-dependent increase”.
Regarding `CC(=O)Nc1ccc2c(c1)Cc1ccccc1-2` [2-Acetylaminofluorene (2-AAF), 2-Acetylaminofluorene], the “metabolism in human skin explants” value in data set [7] was “evidence for metabolism”. Moreover, the “response in the RSMN assay” value in the data set with RS tissues (setting [11]) was “not in the RSMN assay”. Also, in data set [3] (overall call), the “classification … by Lab B” value is on record as “negative”, the “classification … by Lab C” value is “negative” and the “classification in the RSMN assay by Lab D” value was “negative”. Besides, in data set [3] (setting [8]), the “% MN-BN response … Lab B, 72-h protocol” value is “without a significant response” and the “% MN-BN response in individual experiment(s), Lab C, 72-h protocol” value is recorded as “without a significant response”. In data set [3] (setting [9]), the “% MN-BN response … Lab B, 48-h protocol” value is “without a significant response”; the “% MN-BN response … Lab C, 48-h protocol” value is listed as “without a significant response”; the “% MN-BN response in individual experiment(s), Lab D, 48-h protocol” value is “no significant increase”. For the same molecule, the “DNA damage in the RS Comet assay” value in [1] is “weak, but statistically significant and reproducible increase in DNA damage”. Further, the “response in the RS Comet assay” value in data set [1] (setting [11]) was “significant response”.
For the molecule `CCC(=O)OCC(=O)[C@@]1(OC(=O)CC)[C@@H](C)C[C@H]2[C@@H]3CCC4=CC(=O)C=C[C@]4(C)[C@@]3(Cl)[C@@H](O)C[C@@]21C` [Beclomethasone dipropionate], the “maximum dose tested without exceeding the cytotoxicity thresholds” value in data set [2] (48-h protocol) was determined as 1600 µg/cm^2. Besides, the “classification … by Lab B” value in data set [3] (overall call) is listed as “negative”. The “% MN-BN response … Lab B, 48-h protocol” value in [3] (setting [9]) is “no significant increases”.
Regarding `CCCOC(=O)c1cc(O)c(O)c(O)c1` [Propyl gallate], the “top/maximum dose tested, limited” value in [2] (setting [10]) is given as 48 µg/cm^2. In [3], the “% MN-BN response … Lab B, 48-h protocol” value is “did not significantly increase” and the “classification … by Lab B” value is given as “negative”.
Turning to `CCc1cc(C(N)=S)ccn1` [Ethionamide], in [2] (human), the “% VCC or BN (cytotoxicity thresholds exceeded)” value was < 40 % VCC or BN and the “top/maximum dose tested, limited” value was 30–160 µg/cm^2. In data set [3], the “% MN-BN response … Lab A, 48-h protocol” value is “negative”; the “% MN-BN response … Lab B, 48-h protocol” value was “negative”; the “% MN-BN response … Lab B, 72-h protocol” value is listed as “negative”; the “% MN-BN response … Lab C, 48-h protocol” value was “negative”. In addition, in data set [3], the “classification … by Lab A” value was “negative”, the “classification … by Lab B” value was “negative” and the “classification … by Lab C” value is reported as “negative”.
`Nc1ccn([C@@H]2O[C@H](CO)[C@@H](O)[C@@H]2O)c(=O)n1` [Cytosine arabinoside]: the “top/maximum dose tested, limited” value in data set [2] (setting [10]) worked out at 48 µg/cm^2. Also, the “classification … by Lab B” value in [3] (overall call) was “negative”. The “% MN-BN response … Lab B, 72-h protocol” value in [3] (setting [8]) is “Negative results”. Besides, in [3] (setting [9]), the “% MN-BN response … Lab B, 48-h protocol” value was “did not show a significant increase”. Also, the “in vitro chromosome aberration tests” value in [5] is listed as “positive”. Also, the “in vitro MN tests” value in data set [6] is listed as “positive”.
Take `c1ccc2c(c1)cc1ccc3cccc4ccc2c1c34` [B[a]P]: the “RSMN result with the 72-h protocol” value in the data set on RS tissues is recorded as “positive results”.
